# Where a SMILES comes first, the peptide text is derived from it. Where no end group is shown, it is not given here. The star is where a group is joined. 6FAM = O=C1OC2(c3ccc(O)cc3Oc3cc(O)ccc32)c2cc(C(=O)*)ccc21
# T1: RecG R95A (E. coli, UniProt P24230 1-693, R95A)
# T1 construct: RecG DNA helicase, E. coli, R95A introduced into pEAW111 to give pEAW1324; The preparation included a very weak nickase contaminant; source: E. coli STL2669/pT7pol26 with pEAW1324, purified (same scheme as wildtype RecG)
# T1 sequence (looked up): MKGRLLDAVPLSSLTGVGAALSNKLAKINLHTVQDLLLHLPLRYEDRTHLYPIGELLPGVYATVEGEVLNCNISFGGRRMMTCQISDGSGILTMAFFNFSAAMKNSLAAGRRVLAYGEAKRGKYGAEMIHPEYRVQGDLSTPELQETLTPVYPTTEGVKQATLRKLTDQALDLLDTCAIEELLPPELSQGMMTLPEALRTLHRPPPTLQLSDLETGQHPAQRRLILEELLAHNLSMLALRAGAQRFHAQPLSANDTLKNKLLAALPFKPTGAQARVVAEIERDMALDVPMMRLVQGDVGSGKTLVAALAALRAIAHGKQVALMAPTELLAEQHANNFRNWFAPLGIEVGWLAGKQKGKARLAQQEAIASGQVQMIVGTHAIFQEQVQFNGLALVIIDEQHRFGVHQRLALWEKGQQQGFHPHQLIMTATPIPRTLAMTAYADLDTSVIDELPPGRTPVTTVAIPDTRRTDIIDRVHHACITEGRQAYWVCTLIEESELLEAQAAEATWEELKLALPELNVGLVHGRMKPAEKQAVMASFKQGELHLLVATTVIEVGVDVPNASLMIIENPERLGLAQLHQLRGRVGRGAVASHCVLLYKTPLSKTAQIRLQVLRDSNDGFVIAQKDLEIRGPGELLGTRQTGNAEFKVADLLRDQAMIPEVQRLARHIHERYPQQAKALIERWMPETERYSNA
# T2: RecG DNA helicase, wildtype (E. coli, UniProt P24230 1-693)
# T2 construct: RecG DNA helicase, E. coli, expressed from overexpression plasmid pEAW111; No tag is mentioned; also called WT RecG; source: E. coli STL2669/pT7pol26 with pEAW111, purified (ammonium sulfate, DEAE, Source 15Q, Source 15S)
# T2 sequence (looked up): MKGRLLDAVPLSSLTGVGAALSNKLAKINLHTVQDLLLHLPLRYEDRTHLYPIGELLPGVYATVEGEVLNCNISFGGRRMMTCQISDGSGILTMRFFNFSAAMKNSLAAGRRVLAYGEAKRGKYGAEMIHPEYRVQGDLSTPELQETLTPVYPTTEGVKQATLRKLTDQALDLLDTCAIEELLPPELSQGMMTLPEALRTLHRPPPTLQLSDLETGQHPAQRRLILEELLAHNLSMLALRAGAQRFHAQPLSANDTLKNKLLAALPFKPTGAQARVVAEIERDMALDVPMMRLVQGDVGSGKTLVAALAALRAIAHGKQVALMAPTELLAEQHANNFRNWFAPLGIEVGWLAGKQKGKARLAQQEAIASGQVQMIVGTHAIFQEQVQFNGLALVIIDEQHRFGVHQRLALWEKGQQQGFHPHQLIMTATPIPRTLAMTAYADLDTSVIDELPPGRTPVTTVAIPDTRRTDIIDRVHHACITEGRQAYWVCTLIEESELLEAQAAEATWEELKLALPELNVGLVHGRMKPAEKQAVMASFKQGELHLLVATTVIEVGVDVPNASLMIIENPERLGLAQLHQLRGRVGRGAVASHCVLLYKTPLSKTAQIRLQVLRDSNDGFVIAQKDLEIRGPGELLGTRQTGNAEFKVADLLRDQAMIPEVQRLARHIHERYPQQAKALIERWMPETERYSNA
# How the values were obtained:
# [1] = test system: E. coli ssb mutant strains (ssbΔ151–166, ssbΔ139–164, ssbΔ130–166); assay: DNA damage sensitivity spot plate assay of ssb IDL deletion strains; type: cell-based; conditions: ssbΔ151–166, ssbΔ139–164 and ssbΔ130–166 versus MG1655; LB plates, 37°C overnight
# Experimental: MG1655, recG, and ssb IDL mutant strains were tested for sensitivity to UV light, ciprofloxacin, or mitomycin C. A ΔrecA strain (EAW20) was used as a sensitive control in the ssb IDL experiments. Overnight cultures set in biological triplicate were used to inoculate fresh LB. Cells were grown at 37°C with shaking to an OD600 nm of 0.2 and serially diluted 10-fold in 1 × PBS. Ten μl of each dilution was spotted onto square LB agar plates (for UV) or LB plates containing DNA damaging agents (ciprofloxacin or mitomycin C) poured fresh and kept in the dark. UV sensitivity plates were exposed to shortwave light (254 nm) using a Spectrolinker XL-1000 UV crosslinker (Spectronics Corp) and incubated at 37°C overnight in the dark. Plates were imaged on an iBright Imaging System. […] Briefly, dilutions of each strain were plated onto an LB plate exposed to 0, 50 or 100 J/m^2. Plates were incubated under foil at 37°C overnight, and colonies were counted to obtain colony forming units (CFU)/ml and percent relative survival values. […]
# (A) Spot plate assay showing growth of 10-fold serially diluted MG1655 (wildtype ssb), ΔrecA, ssbΔ151–166, ssbΔ139–164, ssbΔ130–166, and ssbΔ120–166 strains exposed to varying UV (top), ciprofloxacin (center), or mitomycin C (bottom) doses. (B) Quantification of strain UV percent survival relative to CFU/ml of the strain at no UV exposure.
# [2] = molecular target: T3, RecG (WT) (Escherichia coli, UniProt P24230); assay: Fluorescence anisotropy binding of 6-FAM-labelled SSB peptides to wildtype RecG; parameters: species or system E. coli; conditions: read-out: FP K D; WT RecG; fluorescence anisotropy; 10 nM N-terminal 6-FAM peptide; 0.2 M potassium glutamate, 25 mM Tris-acetate pH 7.6, 10 mM magnesium acetate; 30 min at room temperature, read at 25°C; one site fit; triplicate
# T3 construct: RecG was expressed in STL2669/pT7pol26 (a gift from Dr Susan Lovett, Brandeis University) with overexpression plasmid pEAW111; made in house; host or cells: E. coli STL2669/pT7pol26
# Experimental: SSB peptides (sequences listed in Figure 2) were designed with an N-terminal tryptophan residue for quantification and N-terminal 6-FAM label (Genscript). RecG was incubated with 0.2 M potassium glutamate, 1 mM DTT, 0.1 μg/ml BSA, 1 × RecA buffer (25 mM Tris-acetate, pH 7.6, 5% w/v glycerol, 3 mM potassium glutamate, 10 mM magnesium acetate, 1 mM DTT), and 10 nM labeled peptide at room temperature for 30 min. Fluorescence polarization (FP) values were measured at 25°C using a Beacon 2000 Fluorescence Polarization System. Polarization values were normalized to the FP value measured at 0 nM RecG. Normalized FP was converted to normalized anisotropy. Experiments were performed in triplicate, and the data were fit to a one site binding model (, where X is ligand concentration, Y is normalized anisotropy, Bmax is the maximum anisotropy, and KD is the dissociation constant) using GraphPad Prism Software.
# Figure 2. RecG binds directly and specifically to the SSB-Ct. (A) Fluorescence anisotropy binding isotherms for RecG binding to SSB-Ct (black), SSB113 (violet), SSBΔF (blue), or SSB IDL (green) peptides. Peptide sequences are listed in parentheses with * representing an N-terminal 6-FAM label. Anisotropy values are normalized to the reading at 0 μM RecG. […] (B–E) ITC analysis of RecG/SSB binding. Thermograms (top) and binding isotherms (bottom) of titrations of (B) full-length SSB, (C) SSB-Ct peptide, (D) SSBΔF or (E) SSBΔF peptide into RecG solutions.
# Two models explaining how RecG interacts with SSB have been proposed - RecG could interact with the SSB-Ct ([29]) or RecG could interact with the IDL ([48],[49]). To begin testing each model, we used an equilibrium fluorescence anisotropy assay to measure RecG binding to fluorescently labeled SSB-Ct or IDL peptides (Figure 2). Titration of RecG with the SSB-Ct peptide led to an increase in fluorescence anisotropy, which occurs when protein binding slows the tumbling rate of a labeled peptide ([90]). […] KD values in the low micromolar range are typical for SSB/SIP complexes ([10],[12–14],[19],[23]). […]
# [3] = test system: AlkB protein; conditions: peptide identical to IDL residues 152–169; cited from earlier work
# Text: The IDL peptide that was used included residues 152–169 of SSB, which has two of the three PxxP motifs in E. coli SSB.
# [4] = test system: SSB-interacting proteins (SIPs); conditions: in vitro; cited from earlier work
# Text: Most SSB-interacting proteins (SIPs) studied to date appear to share a conserved mode of SSB recognition in which they dock onto the SSB-Ct. Several SIPs have been co-crystalized with SSB-Ct peptides and their SSB-binding pockets have been validated in biochemical and/or genetic studies ([10],[12],[19],[20],[35]). SSB-Ct binding pockets have also been successfully predicted through computational methods ([36–39]). […] However, structural data ([31],[36],[108]) and predictions ([80]) reveal that the IDL is unstructured, and the length of IDLs across bacterial species varies greatly ([41]). […] Similarly, SSB fluorescent fusion proteins where GFP ...
# [5] = molecular target: SSB113 peptide, 6-FAM labelled (E. coli) (UniProt P0AGE0); assay: fluorescence polarisation; RecG titrated against 10 nM 6-FAM peptide; 0.2 M potassium glutamate, 1 mM DTT, 0.1 μg/ml BSA, 1x RecA buffer (25 mM Tris-acetate pH 7.6, 5% glycerol, 10 mM magnesium acetate); 30 min at room temperature, read at 25°C; one site binding model, triplicate
# Sequence of SSB113 peptide, 6-FAM labelled (E. coli) (P0AGE0 whole entry, looked up): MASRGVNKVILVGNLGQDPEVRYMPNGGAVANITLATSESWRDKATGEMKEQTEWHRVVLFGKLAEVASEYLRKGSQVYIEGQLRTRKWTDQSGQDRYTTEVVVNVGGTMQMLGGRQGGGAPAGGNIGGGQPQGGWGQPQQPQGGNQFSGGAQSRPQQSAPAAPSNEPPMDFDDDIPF
# [6] = molecular target: SSBΔF peptide, 6-FAM labelled (E. coli); assay: as above
# [7] = molecular target: T1, RecG R95A; assay: as above; conditions: both partners purified
# [8] = molecular target: T2, RecG DNA helicase, wildtype; assay: as above; conditions: both partners purified
molecule,measurement,setting,value
CO[C@@]12[C@H](COC(N)=O)C3=C(C(=O)C(C)=C(N)C3=O)N1C[C@@H]1N[C@@H]12 [mitomycin C],"DNA damage sensitivity of ssb IDL deletion strains, in words",[1],no change in DNA damage sensitivity compared to MG1655
C[C@H](NC(=O)[C@H](Cc1c[nH]c2ccccc12)NC(=O)c1ccc2c(c1)C1(OC2=O)c2ccc(O)cc2Oc2cc(O)ccc21)C(=O)N[C@@H](CCC(N)=O)C(=O)N[C@@H](CO)C(=O)N[C@@H](CCCNC(=N)N)C(=O)N1CCC[C@H]1C(=O)N[C@@H](CCC(N)=O)C(=O)N[C@@H](CCC(N)=O)C(=O)N[C@@H](CO)C(=O)N[C@@H](C)C(=O)N1CCC[C@H]1C(=O)N[C@@H](C)C(=O)N[C@@H](C)C(=O)N1CCC[C@H]1C(=O)N[C@@H](CO)C(=O)N[C@@H](CC(N)=O)C(=O)N[C@@H](CCC(=O)O)C(=O)N1CCC[C@H]1C(=O)O [IDL 152–169 peptide] (6FAM-WAQSRPQQSAPAAPSNEP-OH; C-terminus assumed),Kd,[2],> 30 µM
same,"binding to AlkB, in words",[3],previously reported to bind to the AlkB protein
O=C(O)c1cn(C2CC2)c2cc(N3CCNCC3)c(F)cc2c1=O [ciprofloxacin],"DNA damage sensitivity of ssb IDL deletion strains, in words",[1],no change in DNA damage sensitivity compared to MG1655
SSBΔF: SSB protein variant lacking the C-terminal-most Phe residue,"interaction with SIPs, in words (SSB-Ct deletions)",[4],eliminates interactions between SSB and SIPs in vitro
"RecG DNA helicase, wildtype (enzyme) MKGRLLDAVPLSSLTGVGAALSNKLAKINLHTVQDLLLHLPLRYEDRTHLYPIGELLPGVYATVEGEVLNCNISFGGRRMMTCQISDGSGILTMRFFNFSAAMKNSLAAGRRVLAYGEAKRGKYGAEMIHPEYRVQGDLSTPELQETLTPVYPTTEGVKQATLRKLTDQALDLLDTCAIEELLPPELSQGMMTLPEALRTLHRPPPTLQLSDLETGQHPAQRRLILEELLAHNLSMLALRAGAQRFHAQPLSANDTLKNKLLAALPFKPTGAQARVVAEIERDMALDVPMMRLVQGDVGSGKTLVAALAALRAIAHGKQVALMAPTELLAEQHANNFRNWFAPLGIEVGWLAGKQKGKARLAQQEAIASGQVQMIVGTHAIFQEQVQFNGLALVIIDEQHRFGVHQRLALWEKGQQQGFHPHQLIMTATPIPRTLAMTAYADLDTSVIDELPPGRTPVTTVAIPDTRRTDIIDRVHHACITEGRQAYWVCTLIEESELLEAQAAEATWEELKLALPELNVGLVHGRMKPAEKQAVMASFKQGELHLLVATTVIEVGVDVPNASLMIIENPERLGLAQLHQLRGRVGRGAVASHCVLLYKTPLSKTAQIRLQVLRDSNDGFVIAQKDLEIRGPGELLGTRQTGNAEFKVADLLRDQAMIPEVQRLARHIHERYPQQAKALIERWMPETERYSNA",Kd,[5],23 µM
same,Kd,[6],> 30 µM
"6FAM-WMDFDDDIPF (N-terminal tryptophan residue added for quantification; C-terminal tip of SSB, E. coli; also called fluorescently labeled SSB-Ct peptide; source: synthetic peptide (Genscript)) [SSB-Ct peptide, 6-FAM labelled]",Kd,[7],1800 ± 400 nM
same,Kd,[8],3.1 ± 0.4 µM
